Where two headings read alike, the source gives them in different places.
Experiments:
Test in all cases: Sensitivity test (agar dilution)
E. aerogenes ATCC13048 = format: cell-based, Enterobacter aerogenes; conditions: Klebsiella aerogenes
Outline: (§1)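 Standard Japanese agar dilution method. Drugs alone or combined were serially halved in Mueller Hinton agar, inoculated with overnight (37° C) cultures at about 10^6 CFU/ml. Values are MICs.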

P. aeruginosa IFO3451 = format: cell-based, Pseudomonas aeruginosa; conditions: Pseudomonas aeruginosa
Outline: as §1

P. aeruginosa TL-2666 = format: cell-based, Pseudomonas aeruginosa; conditions: Pseudomonas aeruginosa
Outline: as §1

P. aeruginosa TL-2667 = format: cell-based, Pseudomonas aeruginosa; conditions: Pseudomonas aeruginosa
Outline: as §1

`C[C@H]1C=C(c2csc(SC3=C(C(=O)O)N4C(=O)[C@H]([C@@H](C)O)[C@H]4[C@H]3C)n2)CN1` [SM, (4R,5S,6S)-6-[(1R)-1-Hydroxyethyl]-4-methyl-3-({4-[(5S)-5-methyl-2,5-dihydro-1H-pyrrol-3-yl]-1,3-thiazol-2-yl}sulfanyl)-7-oxo-1-azabicyclo[3.2.0]hept-2-ene-2-carboxylic acid] showed an MIC (E. aerogenes ATCC13048; ATCC13048, Concomitant (PIPC:SM = 1:1), E. aerogenes ATCC13048, read-out: MIC concomitant) of 8 µg/mL, an MIC (E. aerogenes ATCC13048; ATCC13048, Concomitant drug (MEPM:SM = 2:1), read-out: MIC) of 0.016 µg/mL and an MIC (E. aerogenes ATCC13048; ATCC13048, alone, read-out: MIC) of 8 µg/mL. It also gave an MIC (E. aerogenes ATCC13048; ATCC13048, drug alone, E. aerogenes ATCC13048, read-out: MIC alone) of 8 µg/mL, an MIC (P. aeruginosa IFO3451; IFO3451, Concomitant (AZT:SM = 1:1), P. aeruginosa IFO3451, read-out: MIC concomitant) of 2 µg/mL and an MIC (P. aeruginosa IFO3451; IFO3451, Concomitant (BIPM:SM = 1:1), P. aeruginosa IFO3451, read-out: MIC concomitant) of 0.25 µg/mL. For the same molecule, the MIC (P. aeruginosa IFO3451; IFO3451, Concomitant (CAZ:SM = 1:1), P. aeruginosa IFO3451, read-out: MIC concomitant) was 2 µg/mL, the MIC (P. aeruginosa IFO3451; IFO3451, Concomitant (CPFX:SM = 1:1), P. aeruginosa IFO3451, read-out: MIC concomitant) was 0.125 µg/mL and the MIC (P. aeruginosa IFO3451; IFO3451, Concomitant (DRPM:SM = 1:1), P. aeruginosa IFO3451, read-out: MIC concomitant) was 0.25 µg/mL. It also gave an MIC (P. aeruginosa IFO3451; IFO3451, Concomitant (IPM:SM = 1:1), read-out: MIC) of 0.5 µg/mL, an MIC (P. aeruginosa IFO3451; IFO3451, Concomitant (MEPM:SM = 1:1), read-out: MIC) of 0.5 µg/mL and an MIC (P. aeruginosa IFO3451; IFO3451, Concomitant (MEPM:SM = 1:2), read-out: MIC) of 1 µg/mL. The MIC (P. aeruginosa IFO3451; IFO3451, Concomitant (MEPM:SM = 1:4), read-out: MIC) was 2 µg/mL, the MIC (P. aeruginosa IFO3451; IFO3451, Concomitant (PAPM:SM = 1:1), P. aeruginosa IFO3451, read-out: MIC concomitant) was 2 µg/mL and the MIC (P. aeruginosa IFO3451; IFO3451, Concomitant (PIPC:SM = 1:1), P. aeruginosa IFO3451, read-out: MIC concomitant) was 8 µg/mL. The MIC (P. aeruginosa IFO3451; IFO3451, Concomitant drug (MEPM:SM = 2:1), read-out: MIC) was 0.25 µg/mL, the MIC (P. aeruginosa IFO3451; IFO3451, alone, read-out: MIC) was 8 µg/mL and the MIC (P. aeruginosa IFO3451; IFO3451, drug alone, P. aeruginosa IFO3451, read-out: MIC alone) was 8 µg/mL. The MIC (P. aeruginosa TL-2666; TL2666, Concomitant (AZT:SM = 1:1), P. aeruginosa TL-2666, read-out: MIC concomitant) was 8 µg/mL, the MIC (P. aeruginosa TL-2666; TL2666, Concomitant (BIPM:SM = 1:1), P. aeruginosa TL-2666, read-out: MIC concomitant) was 1 µg/mL and the MIC (P. aeruginosa TL-2666; TL2666, Concomitant (CAZ:SM = 1:1), P. aeruginosa TL-2666, read-out: MIC concomitant) was 8 µg/mL. It also gave an MIC (P. aeruginosa TL-2666; TL2666, Concomitant (CPFX:SM = 1:1), P. aeruginosa TL-2666, read-out: MIC concomitant) of 2 µg/mL, an MIC (P. aeruginosa TL-2666; TL2666, Concomitant (DRPM:SM = 1:1), P. aeruginosa TL-2666, read-out: MIC concomitant) of 1 µg/mL and an MIC (P. aeruginosa TL-2666; TL2666, Concomitant (IPM:SM = 1:1), read-out: MIC) of 1 µg/mL. For the same molecule, the MIC (P. aeruginosa TL-2666; TL2666, Concomitant (MEPM:SM = 1:1), read-out: MIC) was 1 µg/mL, the MIC (P. aeruginosa TL-2666; TL2666, Concomitant (MEPM:SM = 1:2), read-out: MIC) was 2 µg/mL and the MIC (P. aeruginosa TL-2666; TL2666, Concomitant (MEPM:SM = 1:4), read-out: MIC) was 4 µg/mL. For the same molecule, the MIC (P. aeruginosa TL-2666; TL2666, Concomitant (PAPM:SM = 1:1), P. aeruginosa TL-2666, read-out: MIC concomitant) was 8 µg/mL, the MIC (P. aeruginosa TL-2666; TL2666, Concomitant (PIPC:SM = 1:1), P. aeruginosa TL-2666, read-out: MIC concomitant) was 16 µg/mL and the MIC (P. aeruginosa TL-2666; TL2666, Concomitant drug (MEPM:SM = 2:1), read-out: MIC) was 0.5 µg/mL. For the same molecule, the MIC (P. aeruginosa TL-2666; TL2666, alone, read-out: MIC) was 16 µg/mL, the MIC (P. aeruginosa TL-2666; TL2666, drug alone, P. aeruginosa TL-2666, read-out: MIC alone) was 16 µg/mL and the MIC (P. aeruginosa TL-2667; TL2667, Concomitant (AZT:SM = 1:1), P. aeruginosa TL-2667, read-out: MIC concomitant) was 8 µg/mL. The MIC (P. aeruginosa TL-2667; TL2667, Concomitant (BIPM:SM = 1:1), P. aeruginosa TL-2667, read-out: MIC concomitant) was 4 µg/mL, the MIC (P. aeruginosa TL-2667; TL2667, Concomitant (CAZ:SM = 1:1), P. aeruginosa TL-2667, read-out: MIC concomitant) was 8 µg/mL and the MIC (P. aeruginosa TL-2667; TL2667, Concomitant (CPFX:SM = 1:1), P. aeruginosa TL-2667, read-out: MIC concomitant) was 2 µg/mL. It also gave an MIC (P. aeruginosa TL-2667; TL2667, Concomitant (DRPM:SM = 1:1), P. aeruginosa TL-2667, read-out: MIC concomitant) of 2 µg/mL, an MIC (P. aeruginosa TL-2667; TL2667, Concomitant (IPM:SM = 1:1), read-out: MIC) of 8 µg/mL and an MIC (P. aeruginosa TL-2667; TL2667, Concomitant (MEPM:SM = 1:1), read-out: MIC) of 4 µg/mL. For the same molecule, the MIC (P. aeruginosa TL-2667; TL2667, Concomitant (MEPM:SM = 1:2), read-out: MIC) was 4 µg/mL, the MIC (P. aeruginosa TL-2667; TL2667, Concomitant (MEPM:SM = 1:4), read-out: MIC) was 8 µg/mL and the MIC (P. aeruginosa TL-2667; TL2667, Concomitant (PAPM:SM = 1:1), P. aeruginosa TL-2667, read-out: MIC concomitant) was 16 µg/mL. It also gave an MIC (P. aeruginosa TL-2667; TL2667, Concomitant (PIPC:SM = 1:1), P. aeruginosa TL-2667, read-out: MIC concomitant) of 16 µg/mL, an MIC (P. aeruginosa TL-2667; TL2667, Concomitant drug (MEPM:SM = 2:1), read-out: MIC) of 2 µg/mL and an MIC (P. aeruginosa TL-2667; TL2667, alone, read-out: MIC) of 16 µg/mL. It also gave an MIC (P. aeruginosa TL-2667; TL2667, drug alone, P. aeruginosa TL-2667, read-out: MIC alone) of 16 µg/mL.

From patent US20090018111A1, “Novel Antimicrobial Medicament” (priority 2004, published 2009)
